Reference: patent publication US11932652B2, “Pyrrolidinyl urea derivatives and application thereof in TrkA-related diseases” (ZHANGZHOU PIEN TZE HUANG PHARMACEUTICAL CO., LTD., priority 2018, dated 2024)

How the values were obtained:
plasma protein = assay: Plasma protein binding rate (PPB) test, SD rat plasma; assay type: in vitro ADME; settings: 2 μM, dialysis 37° C. 4 hours
Method: The protein binding rates of the test compound in the plasma of humans, SD rats and Beagle dogs were determined.
796 μL of blank plasma from humans, SD rats and Beagle dogs (plasma purchased from BioreclamationIVT) were taken, 4 μL of working solution of the test compound (400 μM) or warfarin working solution (400 μM) was added and the final concentration of the test compound or warfarin was 2 μM. The sample was mixed thoroughly. The final concentration of organic phase DMSO was 0.5%; 50 μL of the plasma sample treated with the test compound or warfarin was pipetted into the sample receiving plate, and a corresponding volume of blank plasma or buffer was added immediately so that the final volume in each sample well was 100 μL, the volume ratio of plasma:dialysis buffer was 1:1; 400 μL of stop solution was added to these samples, and these samples were used as T0 samples for recovery and stability determination. To samples were stored at 2° C. to 8° C. for subsequent processing together with other dialyzed samples; 150 μL of the plasma sample treated with the test compound or warfarin was added into the dosing end of each dialysis hole, and 150 μL of blank dialysis buffer was added to the receiving end corresponding to the dialysis hole. Then the dialysis plate was sealed with gas-permeable membrane and placed in a humidified 5% CO2 incubator, and incubated at 37° C. with 100 rpm shaking for 4 hours. After the dialysis, 50 μL of the dialysis buffer sample and the dialysis plasma sample was transferred to a new sample receiving plate. […] All samples were analyzed by LC/MS/MS after protein precipitation, and the plasma protein unbound rate, binding rate and recovery rate was calculated according to the following formula: % unbound rate=100*free compound concentration at the membrane buffer side/total compound concentration at the membrane plasma side, % protein binding rate=100-% unbound rate, % recovery rate=100*(free compound concentration at the membrane buffer side+total compound concentration at the membrane plasma side)/total compound concentration before dialysis.

[1] = In vivo pharmacokinetics in rats after single administration; settings: male, Sprague-Dawley, rat, plasma, 10 mg/kg, 10 mpk oral administration
Method: Male SD rats were used as test animals, and the concentration of the compound in blood was determined after single administration to evaluate the pharmacokinetic behavior.
Sprague Dawley rats (male, 200-300 g, 7-9 weeks, Shanghai Charles River Laboratory Animal Co., Ltd.)
The pharmacokinetic characteristics of the test compound in rodents after intravenous injection and oral administration were tested by standard protocols, in the experiment, the test compound was prepared into a clear solution or homogeneous suspension, and administered to the rats by single intravenous injection and oral administration. In the intravenous injection group, the menstruum was a certain proportion of ethanol and physiological saline solution or a certain proportion of dimethyl sulfoxide in HP-β cyclodextrin solution (pH was adjusted to 3-4), the mixture was vortexed and stirred to prepare 2 mg/mL or 1 mg/mL clear solution, then filtered with microporous membrane for later use; in the oral administration group, the menstruum was a certain proportion of sodium carboxymethyl cellulose solution or a certain proportion of dimethyl sulfoxide in HP-0 cyclodextrin solution (pH was adjusted to about 4), after the test compound was mixed with the solvent, the mixture was vortexed and stirred to prepare 2 mg/mL or 1 mg/mL homogeneous suspension or clear solution for later use. After 2 mg/kg intravenous administration or 10 mg/kg oral administration to rats, a certain amount of whole blood samples were collected, centrifuged at 3000 g for 15 minutes, the supernatant was separated to give the plasma samples; then an acetonitrile solution containing internal standard with a volume 3 times that of the plasma sample was added to precipitate proteins, and then centrifuged; the supernatant was separated, and water with a volume twice that of the supernatant was added to the supernatant, which was then centrifuged again; the supernatant was collected for analysis; LC-MS/MS analysis method was used to quantitatively analyze the blood drug concentration, and Phoenix WinNonlin software (Pharsight, USA) was used to calculate the pharmacokinetic parameters, such as peak concentration, time to peak concentration, clearance rate, half-life, area under the concentration-time curve, bioavailability, etc.
Among them, C0 is the initial concentration, T1/2 is the elimination half-life, Vdss is the steady-state apparent volume of distribution, Cl is the total clearance rate, AUC0-inf is the area under the plasma drug concentration-time curve from time 0 to infinity, Cmax is the peak concentration, Tmax is the time to peak concentration.

[2] = In vivo pharmacokinetics in mice after single administration; design: species or system CD-1 mice
Method: Male CD-1 mice were used as test animals, the concentration of the compound in blood was determined after single administration to evaluate the pharmacokinetic behavior.
CD-1 mice (male, 20-40 g, 6-9 weeks, Shanghai Sippr-Bk Laboratory Animal Co., Ltd.)
The pharmacokinetic characteristics of the test compound in rodents after intravenous injection and oral administration were tested by standard protocols, in the experiment, the test compound was prepared into a clear solution or homogeneous suspension, and administered to the mice by single intravenous injection and oral administration. […] The plasma sample was added to acetonitrile solution containing the internal standard with a volume 20 times that of the plasma sample to precipitate proteins, and then centrifuged; the supernatant was separated, and water with a volume twice that of the supernatant was added to the supernatant, which was then centrifuged again; the supernatant was collected for analysis; LC-MS/MS analysis method was used to quantitatively analyze the blood drug concentration, and Phoenix WinNonlin software (Pharsight, USA) was used to calculate the pharmacokinetic parameters, such as peak concentration, time to peak concentration, clearance rate, half-life, area under the concentration-time curve, bioavailability, etc. […]

Plasma protein unbound rate, SD Rat plasma (plasma protein): 7.1%
AUC(0-inf) [1]: 3.24 µM·h
Cmax [1]: 1790 nM
Tmax [1]: 0.63 h
bioavailability [1]: 24.8%
half-life [1]: 1.6 h
Compound: COCCN1C[C@@H](n2ccc(F)c2)[C@H](NC(=O)Nc2c(C)c(-c3cnc(C4(F)COC4)nc3)nn2-c2ccccc2)C1 [Compound 7]
pharmacokinetic properties and oral bioavailability (in words) [2]: good pharmacokinetic properties and oral bioavailability
